Laboratory results as given in patent publication US7863271B2, “2-aminobenzoxazole carboxamides as 5HT3 modulators” (Albany Molecular Research, Inc., priority 2006, dated 2011).
Where a name gives a salt, the structure may show the parent alone.

target: T1, 5-HT3 (Homo sapiens, UniProt P46098); assay: Compound affinity for the human 5-HT3 receptor (Assay B), SPA radioligand binding with [9-methyl-3H]BRL-43694; set-up: purchased Perkin Elmer; settings: Assay B (method B unless otherwise annotated); read-out: 5-HT3 Ki
T1 sequence (P46098 24-478): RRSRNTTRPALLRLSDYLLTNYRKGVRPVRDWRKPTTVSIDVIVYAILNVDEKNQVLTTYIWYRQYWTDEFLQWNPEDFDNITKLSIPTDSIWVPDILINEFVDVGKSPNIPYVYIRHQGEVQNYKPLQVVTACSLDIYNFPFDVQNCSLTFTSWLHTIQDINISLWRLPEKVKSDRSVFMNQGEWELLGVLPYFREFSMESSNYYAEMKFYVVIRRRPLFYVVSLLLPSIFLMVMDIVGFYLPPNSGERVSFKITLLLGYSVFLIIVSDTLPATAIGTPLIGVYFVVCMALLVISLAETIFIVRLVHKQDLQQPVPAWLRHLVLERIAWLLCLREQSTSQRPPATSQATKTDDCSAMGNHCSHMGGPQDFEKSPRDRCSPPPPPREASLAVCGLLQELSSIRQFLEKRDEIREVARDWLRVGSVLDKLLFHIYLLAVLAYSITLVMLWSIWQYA
Method: Compound Affinity for the human 5-HT3 Receptor (Assay B)
The relative affinity of the various compounds for the human 5-HT3 receptor was measured in a radioligand binding assay, using a scintillation proximity assay (SPA) format. Test compounds were dissolved to 10 mM in 100% DMSO, then serially diluted at 10× assay concentrations in 100% DMSO in 96-well polypropylene plates and further diluted to 4× assay concentrations with the assay buffer. […] Binding reactions were set up in wells of PicoPlates-96 (Perkin Elmer) by adding consecutively 50 μL of each competing compound or buffer, SPA beads, the radioligand and 5-HT3 receptor membranes. After 60-min incubation at room temperature on a Nutator mixer, plates were centrifuged for 15 min at 1,500 rpm, followed by incubation in the dark for 30 min. Radioactivity was counted in the TopCount microplate counter (Perkin Elmer) for 5 min. […] Specific binding was determined by subtracting nonspecific binding from total binding. All experiments were performed in duplicate using ten concentrations of a competing ligand, with ondansetron included as a control in every run. IC50 values were determined from specific binding data using XLfit4.1 curve fitting software from IDBS Ltd. Ki values were then calculated from the Cheng-Prusoff equation.

Compound	Ki [nM]
C[C@H]1CN(C)C(=O)[C@H](C)N1c1nc2c(C(=O)NC3CC4CCCC(C3)N4C)cccc2o1 (stereo partly drawn) [Example 120, Endo-N-(9-methyl-9-azabicyclo[3.3.1]nonan-3-yl)-2-((2S,6S)-2,4,6-trimethyl-3-oxopiperazine-1-yl)benzoxazole-4-carboxamide Hydrochloride]	1.9
CN1CCN(c2nc3c(C(=O)N[C@H]4C[C@H]5CCC[C@@H](C4)N5C)cccc3o2)CC1 [Example 1, Endo-N-(9-Methyl-9-azabicyclo[3.3.1]non-3-yl)-2-(4-methylpiperazin-1-yl)benzoxazole-4-carboxamide Dihydrochloride]	85
CC(C)[C@H]1CN(c2nc3c(C(=O)NC4CC5CCCC(C4)N5C)cccc3o2)CCN1 (stereo partly drawn) [Example 78, Hydrochloride]	25.8
C[C@H]1CN(Cc2ccccc2)C(=O)[C@H](C)N1c1nc2c(C(=O)NC3CC4CCCC(C3)N4C)cccc2o1 (stereo partly drawn) [Example 97, Endo-N-(9-Methyl-9-azabicyclo[3.3.1]nonan-3-yl)-2-((2S,6S)-4-benzyl-2,6-dimethyl-3-oxopiperazine-1-yl)benzoxazole-4-carboxamide Hydrochloride]	0.4
CN1CCCN(c2nc3c(C(=O)N[C@H]4C[C@H]5CCC[C@@H](C4)N5C)cccc3o2)CC1 [Example 11, Endo-N-(9-Methyl-9-azabicyclo[3.3.1]non-3-yl)-2-(4-methyl-1,4-diazepam-1-yl)benzoxazole-4-carboxamide Dihydrochloride]	89.6
O=C(NC1CN2CCC1CC2)c1cccc2oc(N3CCOCC3c3ccccc3)nc12 [Example 20, (S)—N-(quinuclidine-8-yl)-2-(3-phenylmorpholino)benzoxazole-4-carboxamide Hydrochloride]	34.4
COC(=O)N1C[C@H](C)N(c2nc3c(C(=O)NC4CC5CCCC(C4)N5C)cccc3o2)[C@@H](C)C1 (stereo partly drawn) [Example 125, Endo-(3S,5S)-Methyl 3,5-dimethyl-4-(4-(9-methyl-9-azabicyclo[3.3.1]nonan-3-ylcarbamoyl)benzoxazol-2-yl)piperazine-1-carboxylate Hydrochloride]	2.1
CN1[C@@H]2CCC[C@H]1C[C@@H](NC(=O)c1cccc3oc(=S)[nH]c13)C2 [Example 72, Endo N-(9-methyl-9-azabicyclo[3.3.1]nonan-3-yl)-2-thioxo-2,3-dihydrobenzoxazole-4-carboxamide Hydrochloride]	30.8
CN1[C@@H]2CCC[C@H]1C[C@@H](NC(=O)c1cccc3oc(NC4CCCCC4)nc13)C2 [Example 70, Endo-N-(9-Methyl-9-azabicyclo[3.3.1]nonan-3-yl)-2-(cyclohexylamino)benzoxazole-4-carboxamide Hydrochloride]	19.2
C[C@H]1COC[C@H](C)N1c1nc2c(C(=O)NC3CC4COCC(C3)N4C)cccc2o1 (stereo partly drawn) [Example 88, Endo-N-(9-Methyl-3-oxa-9-azabicyclo[3.3.1]nonan-7-yl) 2-((3 S,5S)-3,5-dimethylmorpholino)benzoxazole-4-carboxamide Hydrochloride]	19.9
CC(C)C(=O)N1C[C@H](C)N(c2nc3c(C(=O)NC4CC5CCCC(C4)N5C)cccc3o2)[C@@H](C)C1 (stereo partly drawn) [Example 135, Endo-N-(9-methyl-9-azabicyclo[3.3.1]nonan-3-yl)-2-((2S,6S)-4-isobutyryl-2,6-dimethylpiperazin-1-yl)benzoxazole-4-carboxamide Hydrochloride]	2
C=CCN1C[C@H](C)N(c2nc3c(C(=O)NC4CC5CCCC(C4)N5C)cccc3o2)C[C@H]1C (relative stereo) [Example 147, Endo-N-(9-Methyl-9-azabicyclo[3.3.1]nonan-3-yl)-2-((2S*,5R*)-4-allyl-2,5-dimethylpiperazin-1-yl)benzoxazole-4-carboxamide Dihydrochloride]	10.8
CN1C2CCCC1CC(NC(=O)c1cccc3oc(N4CCOC[C@@H]4CO)nc13)C2 (stereo partly drawn) [Example 94, Endo-N-(9-Methyl-9-azabicyclo[3.3.1]nonan-3-yl)-2-((S)-3-(hydroxymethyl)morpholino)benzoxazole-4-carboxamide Hydrochloride]	27.5
CC(C)OC(=O)N1C[C@H](C)N(c2nc3c(C(=O)NC4CC5CCCC(C4)N5C)cccc3o2)[C@@H](C)C1 (stereo partly drawn) [Example 143, Endo-N-(9-methyl-9-azabicyclo[3.3.1]nonan-3-yl)-2-((2S,6S)-4-(isopropoxycarbonyl)-2,6-dimethylpiperazin-1-yl)benzoxazole-4-carboxamide Hydrochloride]	1.4
CC(O)CCNc1nc2c(C(=O)N[C@H]3C[C@H]4CCC[C@@H](C3)N4C)cccc2o1 (stereo partly drawn) [Example 61, Endo-N-(9-methyl-9-azabicyclo[3.3.1]nonan-3-yl)-2-(3-hydroxybutylamino)benzoxazole-4-carboxamide Hydrochloride]	19.9
CCC(=O)N1C[C@H](C)N(c2nc3c(C(=O)NC4CC5CCCC(C4)N5C)cccc3o2)[C@@H](C)C1 (stereo partly drawn) [Example 134, Endo-N-(9-methyl-9-azabicyclo[3.3.1]nonan-3-yl)-2-((2S,6S)-2,6-dimethyl-4-propionylpiperazin-1-yl)benzoxazole-4-carboxamide Hydrochloride]	1.7
COc1ccccc1Nc1nc2c(C(=O)N[C@H]3C[C@H]4CCC[C@@H](C3)N4C)cccc2o1 [Example 64, Endo-N-(9-methyl-9-azabicyclo[3.3.1]nonan-3-yl)-2-(2-methoxyphenylamino)benzoxazole-4-carboxamide Hydrochloride]	16.2
CN1[C@@H]2CCC[C@H]1C[C@@H](NC(=O)c1cccc3oc(N4CCS(=O)(=O)CC4)nc13)C2 [Example 82, Endo-N-(9-Methyl-9-azabicyclo[3.3.1]nonan-3-yl)-2-(thiomorpholine 1,1-dioxide)benzoxazole-4-carboxamide Hydrochloride]	132
CN1[C@@H]2CCC[C@H]1C[C@@H](NC(=O)c1cccc3oc(NCCN4CCOCC4)nc13)C2 [Example 33, Endo-N-(9-Methyl-9-azabicyclo[3.3.1]nonan-3-yl)-2-(2-morpholinoethylamino)benzoxazole-4-carboxamide Trihydrochloride]	168
Cc1cc(C(=O)NC2CN3CCC2CC3)c2nc(N)oc2c1 [Example 127, (S)—N-(quinulidin-8-yl)-2-amino-6-methylbenzoxazole-4-carboxamide Hydrochloride]	20
CN(C)c1nc2c(C(=O)N[C@@H]3CN4CCC3CC4)cc(Cl)cc2o1 [Example 108, (S)—N-(quinuclidine-8-yl)-6-chloro-2-(dimethylamino)benzoxazole-4-carboxamide Hydrochloride]	14.4
CN(C)c1nc2c(C(=O)N[C@H]3C[C@H]4COC[C@@H](C3)N4C)cccc2o1 [Example 30, Endo-N-(9-methyl-3-oxa-9-azabicyclo[3.3.1]non-7-yl)-2-(dimethylamino)benzoxazole-4-carboxamide Hydrochloride]	79
CNc1nc2c(C(=O)NC3CN4CCC3CC4)cccc2o1 [Example 113, (S)—N-(quinulidin-8-yl)-2-methylaminobenzoxazole-4-carboxamide Hydrochloride]	14.5
C[C@H]1CN(C(=O)N2CCCCC2)C[C@H](C)N1c1nc2c(C(=O)NC3CC4CCCC(C3)N4C)cccc2o1 (stereo partly drawn) [Example 141, Endo-N-(9-methyl-9-azabicyclo[3.3.1]nonan-3-yl)-2-((2S,6S)-2,6-dimethyl-4-(piperidine-1-carbonyl)piperazin-1-yl)benzoxazole-4-carboxamide hydrochloride]	1.8
